target: T1, human progesterone receptor-B (Homo sapiens, UniProt P06401); test: Progesterone receptor-B transactivation assay, progestagenic (agonist) activity, CHO-PRB-pMMTV-LUC 1E2-A2 cells; format: cell-based; conditions: not given
T1 construct: expressed in transfected cells; host or cells: Chinese hamster ovary (CHO) cells, line CHO-PRB-pMMTV-LUC 1E2-A2
T1 sequence (P06401 1-933): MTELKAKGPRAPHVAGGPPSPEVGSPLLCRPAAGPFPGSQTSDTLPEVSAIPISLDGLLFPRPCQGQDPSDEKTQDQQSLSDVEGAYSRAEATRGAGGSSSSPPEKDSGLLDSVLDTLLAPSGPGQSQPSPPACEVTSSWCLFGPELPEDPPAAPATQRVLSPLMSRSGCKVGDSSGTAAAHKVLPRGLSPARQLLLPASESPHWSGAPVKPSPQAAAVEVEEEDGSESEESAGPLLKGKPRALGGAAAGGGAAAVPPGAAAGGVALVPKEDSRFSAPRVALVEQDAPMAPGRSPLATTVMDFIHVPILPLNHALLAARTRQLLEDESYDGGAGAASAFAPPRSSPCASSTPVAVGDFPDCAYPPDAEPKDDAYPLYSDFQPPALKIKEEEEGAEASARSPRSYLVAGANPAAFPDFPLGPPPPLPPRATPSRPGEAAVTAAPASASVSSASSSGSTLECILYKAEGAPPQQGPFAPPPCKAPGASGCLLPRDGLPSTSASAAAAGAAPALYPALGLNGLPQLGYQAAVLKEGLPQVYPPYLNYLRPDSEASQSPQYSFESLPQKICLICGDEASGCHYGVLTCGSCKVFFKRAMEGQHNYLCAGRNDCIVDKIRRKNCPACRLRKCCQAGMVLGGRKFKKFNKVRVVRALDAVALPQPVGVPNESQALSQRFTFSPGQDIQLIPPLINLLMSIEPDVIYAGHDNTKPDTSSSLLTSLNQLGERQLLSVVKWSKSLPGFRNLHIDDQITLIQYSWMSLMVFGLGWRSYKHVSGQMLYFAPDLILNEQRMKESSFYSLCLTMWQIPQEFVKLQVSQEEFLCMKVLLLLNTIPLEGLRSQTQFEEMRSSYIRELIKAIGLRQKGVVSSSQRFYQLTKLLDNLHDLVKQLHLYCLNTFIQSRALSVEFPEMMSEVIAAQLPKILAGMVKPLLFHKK
Description: The (anti-)progestagenic activity of a compound of the invention (EC 50 and intrinsic activity) was determined in an in vitro bioassay of Chinese hamster ovary (CHO) cells stably transfected with the human progesterone receptor-B expression plasmid and with a reporter plasmid in which the MMTV-promoter is linked to the luciferase reporter gene. […] The cells were cultured with charcoal-treated supplemented defined bovine calf serum from Hyclone (Utah, USA) in Dulbecco's Modified Eagles Medium/Nutrient Mixture F-12 (DMEM/HAM F12 in ratio 1:1) from Gibco (Paisley, UK).

Row | Structure (SMILES) | EC50 [nM]
1 | N[C@H]1CCCN2c3cc(F)ccc3Oc3ccccc3[C@H]12 (relative stereo) [Example 1, trans-7-Fluoro-2,3,4,14b-tetrahydro-1H-dibenzo[b,f]pyrido[1,2-d][1,4]oxazepine-1-amine] | 100 to 10000

same assay, conditions: CHO cells stably transfected with human progesterone receptor-B and MMTV-luciferase reporter; read-out: Progestagenic activity EC50

Row | Structure (SMILES) | EC50 [nM]
2 | O=C(N[C@H]1CCCN2c3c(ccc(Cl)c3Cl)Oc3cc(Br)ccc3[C@H]12)C(F)(F)F (relative stereo) [Example 71, trans-N-(12-Bromo-6,7-dichloro-2,3,4,14b-tetrahydro-1H-dibenzo[b,f]pyrido[1,2-d][1,4]oxazepin-1-yl)-2,2,2-trifluoroacetamide] | < 10
3 | CC(C)CN[C@H]1CCCN2c3cc(Cl)ccc3Oc3ccccc3[C@H]12 (relative stereo) [Example 36, trans-N-(2-Methylpropyl)-7-chloro-2,3,4,14b-tetrahydro-1H-dibenzo[b,f]pyrido[1,2-d][1,4]oxazepine-1-amine] | 100 to 10000
4 | O=C(N[C@H]1CCCN2c3cc(Cl)ccc3Oc3c(F)cccc3[C@H]12)C(F)(F)F (relative stereo) [Example 72, trans-N-(7-Chloro-11-fluoro-2,3,4,14b-tetrahydro-1H-dibenzo[b,f]pyrido[1,2-d][1,4]oxazepin-1-yl)-2,2,2-trifluoroacetamide] | 10 to 100
5 | FC(F)(F)C(=S)N[C@H]1CCCN2c3c(ccc(Cl)c3Cl)Oc3ccccc3[C@H]12 (relative stereo) [Example 26] | < 10
6 | N#Cc1ccc2c(c1)Oc1ccc(Cl)cc1N1CCC[C@H](NC(=O)C(F)(F)F)[C@@H]21 (relative stereo) [Example 69, trans-7-Chloro-2,3,4,14b-tetrahydro-1-[(trifluoroacetyl)amino]-1H-dibenzo[b,f]pyrido[1,2-d][1,4]oxazepine-12-carbonitrile] | 10 to 100
7 | N#Cc1cccc2c1N1CCC[C@H](NC(=O)C(F)(F)F)[C@H]1c1ccccc1O2 (relative stereo) [Example 53, trans-2,3,4,14b-Tetrahydro-1-[(trifluoroacetyl)amino]-1H-dibenzo[b,f]pyrido[1,2-d][1,4]oxazepine-6-carbonitrile] | < 10
8 | FC(F)(F)C(=S)NC1CCCN2c3cc(Cl)ccc3Cc3ccccc3C12 (stereo not drawn) [Example 20] | < 10
9 | O=C(N[C@H]1CCCN2c3cc(Cl)ccc3Nc3ccccc3[C@H]12)C(F)(F)F (relative stereo) [Example 78, trans-N-(7-chloro-1,2,3,4,10,14b-hexahydrodibenzo[b,f]pyrido[1,2-d][1,4]diazepin-1-yl)-2,2,2-trifluoroacetamide] | 10 to 100
10 | N[C@H]1CCCN2c3cc(Cl)ccc3Oc3ccccc3[C@H]12 (relative stereo) [Example 3, trans-7-Chloro-2,3,4,14b-tetrahydro-1H-dibenzo[b,f]pyrido[1,2-d][1,4]oxazepine-1-amine] | 100 to 10000
11 | NCC(=S)N[C@H]1CCCN2c3cc(Cl)ccc3Oc3ccccc3[C@H]12 (relative stereo) [Example 27] | 100 to 10000
12 | O=C(N[C@H]1CCCN2c3cc(Cl)ccc3Oc3ccccc3[C@H]12)C(F)F [Example 13] | 10 to 100
13 | C=Cc1cccc2c1N1CCC[C@H](NC(=O)C(F)(F)F)[C@H]1c1ccccc1O2 (relative stereo) [Example 54, trans-N-(6-Ethenyl-2,3,4,14b-tetrahydro-1H-dibenzo[b,f]pyrido[1,2-d][1,4]oxazepin-1-yl)-2,2,2-trifluoroacetamide] | < 10
14 | O=C(N[C@H]1CCCN2c3cc(Cl)ccc3Sc3ccccc3[C@H]12)C(F)(F)F (relative stereo) [Example 6, trans-2,2,2-Trifluoro-N-(7-chloro-2,3,4,14b-tetrahydro-1H-dibenzo[b,f]pyrido[1,2-d][1,4]thiazepin-1-yl)acetamide] | < 10
15 | O=C(N[C@H]1CCCN2c3cc(Cl)ccc3Oc3ccccc3[C@H]12)OCCl (relative stereo) [Example 30, Trans-(7-Chloro-2,3,4,14b-tetrahydro-1H-dibenzo[b,f]pyrido[1,2-d][1,4]oxazepin-1-yl)carbamic Acid Chloromethyl Ester] | 100 to 10000

Now from value to compound:

Row | EC50 [nM] | Structure (SMILES)
16 | 100 to 10000 | CS(=O)(=O)N(c1cc2c(cc1Cl)N1CCC[C@H](NC(=O)C(F)(F)F)[C@H]1c1ccccc1O2)S(C)(=O)=O (relative stereo) [Example 44, trans-N-(7-Chloro-2,3,4,14b-tetrahydro-8-[bis(methylsulfonyl)amino]-1H-dibenzo[b,f]pyrido[1,2-d][1,4]oxazepin-1-yl)-2,2,2-trifluoroacetamide]
17 | < 10 | N#Cc1cc(F)cc2c1N1CCC[C@H](NC(=O)C(F)(F)F)[C@H]1c1ccccc1O2 (relative stereo) [Example 58, trans-8-Fluoro-2,3,4,14b-tetrahydro-1-[(trifluoroacetyl)amino]-1H-dibenzo[b,f]pyrido-[1,2-d][1,4]oxazepine-6-carbonitrile]
18 | < 10 | CC(=O)c1cccc2c1N1CCC[C@H](NC(=O)C(F)(F)F)[C@H]1c1ccccc1O2 (relative stereo) [Example 52, trans-N-(6-Acetyl-2,3,4,14b-tetrahydro-1H-dibenzo[b,f]pyrido[1,2-d][1,4]oxazepin-1-yl)-2,2,2-trifluoroacetamide]
19 | 100 to 10000 | C=Cc1ccc2c(c1)N1CCC[C@H](NC(=O)C(F)(F)F)[C@H]1c1ccccc1O2 (relative stereo) [Example 64, trans-N-(7-Ethenyl-2,3,4,14b-tetrahydro-1H-dibenzo[b,f]pyrido[1,2-d][1,4]oxazepin-1-yl)-2,2,2-trifluoroacetamide]
20 | 10 to 100 | Cc1ccc2c(c1)Oc1ccc(Cl)cc1N1CCC[C@H](NC(=O)C(F)(F)F)[C@@H]21 (relative stereo) [Example 70, trans-N-(7-Chloro-2,3,4,14b-tetrahydro12-methyl-1H-dibenzo[b,f]pyrido[1,2-d][1,4]oxazepin-1-yl)-2,2,2-trifluoroacetamide]
21 | 10 to 100 | CC(=O)c1ccc2c(c1)N1CCC[C@H](NC(=O)C(F)(F)F)[C@H]1c1ccccc1O2 (relative stereo) [Example 62, trans-N-(7-Acetyl-2,3,4,14b-tetrahydro-1H-dibenzo[b,f]pyrido[1,2-d][1,4]oxazepin-1-yl)-2,2,2-trifluoroacetamide]
22 | < 10 | FC(F)(F)C(=S)N[C@H]1CCCN2c3cc(Cl)ccc3Oc3ccccc3[C@H]12 (relative stereo) [Example 19]
23 | < 10 | O=C(N[C@H]1CCCN2c3c(ccc(Cl)c3Cl)Oc3ccccc3[C@H]12)C(F)(F)F (relative stereo) [Example 38B, trans-N-(6,7-Dichloro-2,3,4,14b-tetrahydro-1H-dibenzo[b,f]pyrido[1,2-d][1,4]oxazepin-1-yl)-2,2,2-trifluoroacetamide]
24 | 10 to 100 | O=C(N[C@H]1CCCN2c3cc(Cl)c(NS(=O)(=O)c4ccccc4)cc3Oc3ccccc3[C@H]12)C(F)(F)F (relative stereo) [Example 45, trans-N-(7-Chloro-2,3,4,14b-tetrahydro-8-[(phenylsulfonyl)amino]-1H-dibenzo[b,f]pyrido[1,2-d][1,4]oxazepin-1-yl)-2,2,2-trifluoroacetamide]
25 | 10 to 100 | CC(C)(C)OC(=O)Nc1cc2c(cc1Cl)N1CCC[C@H](NC(=O)C(F)(F)F)[C@H]1c1ccccc1O2 (relative stereo) [Example 46, trans-N-(7-Chloro-2,3,4,14b-tetrahydro-1-(2,2,2-trifluoroacetylamino)1H-dibenzo[b,f]pyrido[1,2-d][1,4]oxazepin-8-yl)carbamic Acid 1,1-dimethylethyl Ester]
26 | < 10 | C=Cc1cc(F)cc2c1N1CCC[C@H](NC(=O)C(F)(F)F)[C@H]1c1ccccc1O2 (relative stereo) [Example 59, trans-N-(6-Ethenyl-8-fluoro-2,3,4,14b-tetrahydro-1H-dibenzo[b,f]pyrido[1,2-d][1,4]-oxazepin-1-yl)-2,2,2-trifluoroacetamide]
27 | 100 to 10000 | CCC(=O)Nc1ccc2c(c1)N1CCC[C@H](NC(=O)C(F)(F)F)[C@H]1c1ccccc1O2 (relative stereo) [Example 67, trans-N-[2,3,4,14b-Tetrahydro-7-[(1-oxopropyl)amino]-1H-dibenzo[b,f]pyrido[1,2-d][1,4]oxazepin-1-yl]-2,2,2-trifluoroacetamide]
